According to patent US20080021217A1, “HETEROCYCLIC INHIBITORS OF RHO KINASE” (priority 2006, published 2008):

Columns and labels:
[1] = biological target: T1, recombinant N-terminal GST-tagged human Rho kinase 2 (ROCK2, amino acids 1-552) (Homo sapiens, UniProt O75116); experiment: In vitro Rho kinase assay (luciferase-based ATP consumption), ROCK2; assay type: biochemical
T1 construct: ROCK2, amino acids 1-552, Invitrogen Inc., cat #PV3759; GST (N); purchased Invitrogen Inc. PV3759
Experimental: (§1) Rho kinase biochemical assays described below depend on firefly luciferase-based, indirect measurement of total ATP consumption by the kinase following incubation with substrate and ATP. 25 μl of Rho kinase assay buffer (20 mM Tris-HCL [pH 7.5], 1 mM MgCl2, 0.4 mM CaCl2, 0.15 mM EGTA, 0.1 mg/ml bovine serum albumin) containing 0.82 μg/ml of recombinant N-terminal GST-tagged human Rho kinase 1 (ROCK1, amino acids 1-535, Invitrogen Inc., cat. #PV-3691) or recombinant N-terminal GST-tagged human Rho kinase 2 (ROCK2, amino acids 1-552, Invitrogen Inc., cat #PV3759), 100 μg/ml S6 peptide substrate (related to amino acids 218-249 of the human 40S ribosomal protein S6, and suitable for ROCK1 or ROCK2, e.g. Upstate/Millipore Inc., cat #12-420), and 3 µM ATP are dispensed to wells of a 384 multi-well opaque plate. The plate is centrifuged for 30 seconds at approximately 200×g. 240 nl of test compound in DMSO is dispensed to each well by passive pin transfer. The lag phase of this in vitro kinase reaction permits addition of compounds soon after the reaction initiates. The reaction is allowed to incubate at 30° C. for 2 hours. The assay plates are sealed and maintained in a humidified environment. After 2 hours, 25 μl of easyLite protein kinase assay reagent (Perkin-Elmer, Inc.) is dispensed. After an additional 10 minute incubation at room temperature (about 22° C.), luminescence activity is measured on a Molecular Devices Analyst multi-mode plate reader or other suitable plate reader. Kinase inhibition results in less ATP consumption, and therefore increased luminescence signal. Negative control activity is measured with DMSO lacking any test compound. The positive control is 2-methyl-1-(4-methylisoquinolin-5-ylsulfonyl)perhydro-1,4-diazepine hydrochloride (aka H-1152P, HCl salt). Efficacy is measured as a percentage of positive control activity. […] In some cases, kinase reactions and compound testing are performed in 1536 multi-well plates under similar conditions, with assay volumes appropriately scaled. The designated NT means the cited example was not tested.

[2] = biological target: T2, recombinant N-terminal GST-tagged human Rho kinase 1 (ROCK1, amino acids 1-535) (Homo sapiens, UniProt Q13464); experiment: In vitro Rho kinase assay (luciferase-based ATP consumption), ROCK1; assay type: biochemical
T2 construct: ROCK1, amino acids 1-535, Invitrogen Inc., cat. #PV-3691; GST (N); purchased Invitrogen Inc. PV-3691
T2 sequence (Q13464 1-535): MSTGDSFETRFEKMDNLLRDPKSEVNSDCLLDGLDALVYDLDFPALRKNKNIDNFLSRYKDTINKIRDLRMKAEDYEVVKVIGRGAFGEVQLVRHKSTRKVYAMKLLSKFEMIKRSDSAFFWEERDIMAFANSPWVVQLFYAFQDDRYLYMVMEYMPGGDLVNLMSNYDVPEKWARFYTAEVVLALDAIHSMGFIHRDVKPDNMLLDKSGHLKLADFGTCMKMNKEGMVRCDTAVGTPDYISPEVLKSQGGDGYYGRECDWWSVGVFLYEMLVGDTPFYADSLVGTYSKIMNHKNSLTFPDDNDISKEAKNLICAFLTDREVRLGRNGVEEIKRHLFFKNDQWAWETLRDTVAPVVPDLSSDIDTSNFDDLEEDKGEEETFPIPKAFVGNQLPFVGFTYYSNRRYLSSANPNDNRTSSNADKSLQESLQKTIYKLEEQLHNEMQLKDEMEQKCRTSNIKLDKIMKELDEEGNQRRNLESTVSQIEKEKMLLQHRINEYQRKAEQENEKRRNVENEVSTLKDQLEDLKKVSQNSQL
Experimental: as §1

T1 sequence (O75116 1-552): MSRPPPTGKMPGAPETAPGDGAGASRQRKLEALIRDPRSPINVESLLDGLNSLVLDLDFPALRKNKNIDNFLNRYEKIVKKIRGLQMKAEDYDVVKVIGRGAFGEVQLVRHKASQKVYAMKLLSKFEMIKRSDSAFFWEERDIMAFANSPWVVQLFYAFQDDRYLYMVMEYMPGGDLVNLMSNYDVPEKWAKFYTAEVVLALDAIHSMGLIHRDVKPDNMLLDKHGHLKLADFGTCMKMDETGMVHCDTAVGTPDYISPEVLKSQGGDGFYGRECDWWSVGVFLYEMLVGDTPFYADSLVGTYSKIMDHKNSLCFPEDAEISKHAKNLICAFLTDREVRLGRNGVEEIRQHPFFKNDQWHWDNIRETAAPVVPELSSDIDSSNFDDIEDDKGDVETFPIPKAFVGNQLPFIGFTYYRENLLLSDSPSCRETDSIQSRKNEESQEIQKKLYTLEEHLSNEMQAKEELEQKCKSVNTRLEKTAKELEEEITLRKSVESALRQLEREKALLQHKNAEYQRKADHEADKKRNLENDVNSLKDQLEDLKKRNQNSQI

SMILES | IC50 [1] [µM] | IC50 [2] [µM]
O=C(NCc1nc(-c2ccncc2)n[nH]1)c1cccc(Cl)c1O [Example 26, 3-chloro-2-hydroxy-N-((3-(pyridin-4-yl)-1H-1,2,4-triazol-5-yl)methyl)benzamide] | < 5 | < 5
O=C(Nc1cccc2c(-c3ccncc3)n[nH]c12)c1cccs1 [Example 68, N-(3-(Pyridin-4-yl)-1H-indazol-7-yl)thiophene-2-carboxamide] | > 5 | –
Cn1nc(-c2ccncc2)nc1CNC(=O)c1cccs1 [Example 50, N-((1-Methyl-3-(pyridin-4-yl)-1H-1,2,4-triazol-5-yl)methyl)thiophene-2-carboxamide] | > 5 | > 5
CCc1cccc(C(=O)NCc2nc(-c3ccncc3)n[nH]2)c1O [Example 52, 3-Ethyl-2-hydroxy-N-((3-(pyridin-4-yl)-1H-1,2,4-triazol-5-yl)methyl)benzamide] | < 5 | < 5
CS(=O)(=O)Nc1cccc(C(=O)NCc2nc(-c3c[nH]c4ncccc34)n[nH]2)c1 [Example 72, N-((3-(1H-pyrrolo[2,3-b]pyridin-3-yl)-1H-1,2,4-triazol-5-yl)methyl)-3-(methylsulfonamido)benzamide] | < 5 | < 5
O=C(NCc1c[nH]c(-c2ccncc2)n1)c1cccs1 [Example 14] | > 5 | > 5
CC(C)(C)C(=O)Oc1ccc(C(=O)NCc2nc(-c3ccncc3)n[nH]2)c(O)c1 [Example 39, 3-Hydroxy-4-((3-(pyridin-4-yl)-1H-1,2,4-triazol-5-yl)methylcarbamoyl)phenyl pivalate] | > 5 | < 5
COc1ccc(NC(=O)NCc2nc(-c3ccncc3)n[nH]2)c(OC)c1 [Example 34, 1-(2,4-Dimethoxyphenyl)-3-((3-(pyridin-4-yl)-1H-1,2,4-triazol-5-yl)methyl)urea] | > 5 | –
NC1CCN(C(=O)Cc2nc(-c3ccncc3)n[nH]2)C1 (stereo not drawn) [Example 61, 1-(3-Aminopyrrolidin-1-yl)-2-(3-(pyridin-4-yl)-1H-1,2,4-triazol-5-yl)ethanone] | > 5 | –
CC(C)(C)OC(=O)NC1CCN(C(=O)Cc2nc(-c3ccncc3)n[nH]2)C1 (stereo not drawn) [Example 60, tert-Butyl 1-(2-(3-(pyridin-4-yl)-1H-1,2,4-triazol-5-yl)acetyl)pyrrolidin-3-ylcarbamate] | > 5 | –

The remaining lines, values ahead:

IC50 [1] [µM] | IC50 [2] [µM] | SMILES
> 5 | > 5 | CS(=O)(=O)Nc1ccccc1C(=O)NCc1nc(-c2ccncc2)n[nH]1 [Example 29, 2-(Methylsulfonamido)-N-((3-(pyridin-4-yl)-1H-1,2,4-triazol-5-yl)methyl)benzamide]
< 5 | < 5 | O=C(NCc1cc(-c2ccncc2)n[nH]1)c1ccc(O)cc1O [Example 9, 2,4-dihydroxy-N-((3-(pyridin-4-yl)-1H-pyrazol-5-yl)methyl)benzamide]
< 5 | < 5 | O=C(NCc1nc(-c2c[nH]c3ncccc23)n[nH]1)c1ccc(O)cc1O [Example 69]
< 5 | < 5 | Cc1ccc(C(=O)NCc2nc(-c3ccncc3)n[nH]2)s1 [Example 49, 5-Methyl-N-((3-(pyridin-4-yl)-1H-1,2,4-triazol-5-yl)methyl)thiophene-2-carboxamide]
< 5 | < 5 | COC(=O)c1ccc(C(=O)NCc2nc(-c3ccncc3)n[nH]2)cc1 [Example 30, Methyl 4-((3-(pyridin-4-yl)-1H-1,2,4-triazol-5-yl)methylcarbamoyl)benzoate]
< 5 | < 5 | COc1ccc(C(=O)NCc2nc(-c3ccncc3)n[nH]2)c(O)c1 [Example 24, 2-hydroxy-4-methoxy-N-((3-(pyridin-4-yl)-1H-1,2,4-triazol-5-yl)methyl)benzamide]
< 5 | < 5 | O=C(NCc1c[nH]c(-c2ccncc2)n1)c1ccc(O)cc1O [Example 12, 2,4-dihydroxy-N-((2-(pyridin-4-yl)-1H-imidazol-4-yl)methyl)benzamide]
